Values quoted from earlier work as cited in article PMC10973013, “Translational Potential of a Contrast Agent for FGS Applications in pNETs” (Molecular Imaging and Biology, 2024).

Test system: lesions in ovarian cancer patients
Details: cytoreductive surgery, randomized phase 3
Source text: The critical need for accurate tumor detection during oncologic surgery has led to the development of fluorescent contrast agents that target cancerous tissues. This technique, known as fluorescence-guided surgery (FGS), typically involves systemic administration of a fluorescent compound that contains a tumor-targeting moiety and is imaged in the near-infrared spectral range in order to maximize image contrast and diagnostic accuracy. In 2021, the folic acid analog OTL-38 (CYTALUX®) became the first clinically approved FGS agent to target tumors via an active, receptor-mediated process. ...

Structure (SMILES): CC1(C)C(/C=C/C2=C(Oc3ccc(C[C@H](NC(=O)c4ccc(NCc5cnc6nc(N)[nH]c(=O)c6n5)cc4)C(=O)[O-])cc3)C(=C/C=C3\N(CCCCS(=O)(=O)[O-])c4ccc(S(=O)(=O)[O-])cc4C3(C)C)/CCC2)=[N+](CCCCS(=O)(=O)[O-])c2ccc(S(=O)(=O)[O-])cc21.[H+].[H+].[H+].[H+] [OTL-38]
- identification of lesions with FGS versus standard-of-care methods: more effectively identified with FGS than with standard-of-care methods
